From ChEMBL document CHEMBL4665793, “Screening and Reverse-Engineering of Estrogen Receptor Ligands as Potent Pan-Filovirus Inhibitors” (J Med Chem, 2020)
The source made the active and inactive calls. No cut-off for these calls is given here.

Tests used:
Marburgvirus [1] = format: functional, organism-based; details: Orthomarburgvirus, Angola, A549, 24 h
in vitro [2] = details: human, A549 cells
in vitro [3] = details: human, A549 cells; remark: listed apart in the source
Zaire ebolavirus = assay: microbe, parasite or virus in culture; details: Mayinga, Zaire, 1976, A549, 48 h
Marburgvirus [4] = assay: microbe, parasite or virus in culture; details: Orthomarburgvirus, Musoke, A549, 48 h
[5] = test system: Vesicular stomatitis virus; assay: Antiviral activity against vesicular stomatitis virus assessed as inhibition of viral entry; format: functional, organism-based
Influenza A virus = assay: Antiviral activity against Influenza A virus H5N1 assessed as inhibition of viral entry; format: functional, organism-based
Ebolavirus [6] = assay: Antiviral activity against Ebolavirus (pBDBV) assessed as inhibition of viral entry; format: functional, organism-based
Mengla dianlovirus = assay: Antiviral activity against Mengla-virus assessed as inhibition of viral entry; format: functional
Ebolavirus [7] = assay: Antiviral activity against Ebolavirus Tai Forest assessed as inhibition of viral entry; format: functional, organism-based
Ebolavirus [8] = assay: Antiviral activity against Ebolavirus (pRESTV) assessed as inhibition of viral entry; format: functional, organism-based
[9] = biological target: T1, Estrogen receptor (Homo sapiens) (UniProt P03372); assay: Agonist activity at ER-alpha in human MCF-7:WS8 cells transfected with an estrogen response element incubated for 18 hrs by luciferase reporter gene assay; format: cell-based; details: MCF7
T1 sequence (whole entry): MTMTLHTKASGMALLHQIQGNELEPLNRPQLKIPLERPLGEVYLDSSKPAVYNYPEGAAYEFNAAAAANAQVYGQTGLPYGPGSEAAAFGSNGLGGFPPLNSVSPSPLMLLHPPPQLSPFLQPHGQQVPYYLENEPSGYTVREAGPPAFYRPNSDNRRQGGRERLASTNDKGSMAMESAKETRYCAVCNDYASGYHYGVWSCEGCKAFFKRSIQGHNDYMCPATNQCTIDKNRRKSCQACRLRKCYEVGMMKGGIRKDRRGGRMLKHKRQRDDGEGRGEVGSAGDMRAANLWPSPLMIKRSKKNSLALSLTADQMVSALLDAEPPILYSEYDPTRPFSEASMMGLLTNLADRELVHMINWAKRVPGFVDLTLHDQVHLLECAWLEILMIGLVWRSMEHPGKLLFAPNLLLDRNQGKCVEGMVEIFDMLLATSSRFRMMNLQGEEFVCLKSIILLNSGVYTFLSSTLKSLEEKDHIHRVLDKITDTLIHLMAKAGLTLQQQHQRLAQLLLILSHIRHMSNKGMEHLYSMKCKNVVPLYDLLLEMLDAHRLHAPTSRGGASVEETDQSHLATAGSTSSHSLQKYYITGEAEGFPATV

[10] = biological target: T1, Estrogen receptor (Homo sapiens); assay: Antagonist activity at ER-alpha in human MCF-7:WS8 cells transfected with an estrogen response element assessed as suppression of estrogen-induced response incubated for 18 hrs by luciferase reporter gene assay; format: cell-based; details: MCF7
A549 = format: cell-based; details: human

| SMILES | IC50 (Marburgvirus [1]) | selectivity ratio (in vitro [2]) | selectivity ratio (in vitro [3]) | IC50 (Zaire ebolavirus) | IC50 (Marburgvirus [4]) | inhibition [5] | inhibition (Influenza A virus) | inhibition (Ebolavirus [6]) | inhibition (Mengla dianlovirus) | inhibition (Ebolavirus [7]) | inhibition (Ebolavirus [8]) | Activity [9] | inhibition [10] | CC50 (A549) |
| --- | --- | --- | --- | --- | --- | --- | --- | --- | --- | --- | --- | --- | --- | --- |
| CC/C(=C(/c1ccc(NC(=O)CN2CCOCC2)cc1)c1ccc(OCCN2CCOCC2)cc1)c1ccccc1 | 3240 nM | 13 | 40 | 740 nM | 4230 nM | – | – | – | – | – | – | – | – | – |
| CC1=C(c2ccc(O)cc2)[C@H](c2ccc(OCCN3CCCCC3)cc2)Oc2ccccc21 | – | 19 | 11 | 1500 nM | 900 nM | – | – | – | – | – | – | – | – | – |
| CC/C(=C(/c1ccc(NC(=O)C2CCN(C)C2)cc1)c1ccc(OCCN2CCCC2)cc1)c1ccccc1 (stereo not drawn) | 960 nM | 30 | 590 | 20 nM | 720 nM | inactive | inactive | Active | Active | Active | Active | inactive | inactive | 11800 nM |
| CC/C(=C(/c1ccc(NC(=O)C2CCN(C3CCN(C)CC3)CC2)cc1)c1ccc(OCCN2CCCC2)cc1)c1ccccc1 | 1070 nM | 16 | 79 | 180 nM | 2050 nM | – | – | – | – | – | – | – | – | – |
| Nc1ccc(-c2sc3cc(O)ccc3c2Oc2ccc(OCCN3CCCCC3)cc2)cc1 | > 6250 nM | > 69 | > 770 | 130 nM | 1450 nM | – | – | – | – | – | – | inactive | – | – |
| CC/C(=C(/c1ccc(N)cc1)c1ccc(OCCN2CCCC2)cc1)c1ccccc1 | 1780 nM | 13 | 147 | 130 nM | 1070 nM | – | – | – | – | – | – | – | – | – |
| OCCOc1ccc(/C(=C(/CCCl)c2ccccc2)c2ccccc2)cc1 [OSPEMIFENE] | – | < 1 | 7 | 3800 nM | 34400 nM | – | – | – | – | – | – | – | – | – |
| COc1ccc(-c2sc3cc(OC)ccc3c2Oc2ccc(OCCN3CCC(CCNC(=O)CCCCNC(=O)OC(C)(C)C)CC3)cc2)cc1 | – | 76 | 57 | 800 nM | 600 nM | – | – | – | – | – | – | – | – | – |
| Cc1c(-c2ccc(O)cc2)n(Cc2ccc(OCCN3CCCCCC3)cc2)c2ccc(O)cc12 [BAZEDOXIFENE] | – | 6 | 10 | 2240 nM | 3830 nM | – | – | – | – | – | – | – | – | – |
| Cc1ccccc1C(=O)c1sc2cc(O)ccc2c1Oc1ccc(OCCN2CC(CF)C2)cc1 | > 6250 nM | 7 | 27 | 1020 nM | 3880 nM | – | – | – | – | – | – | – | – | – |
| CCNCCc1ccc(CN(CC)c2cc(OC)ccc2[C@@H]2CCc3cc(O)ccc3C2)cc1 [ELACESTRANT] | – | 8 | 44 | 240 nM | 1300 nM | – | – | – | – | – | – | – | – | – |
| CN(C)CCOc1ccc(/C(=C(/CCCl)c2ccccc2)c2ccccc2)cc1 [TOREMIFENE] | 3900 nM | 6 | 229 | 70 nM | 2600 nM | – | – | Active | Active | Active | Active | – | – | – |
| CC/C(=C(/c1ccc(NC(=O)CN2CCOCC2)cc1)c1ccc(OCCN2CCCC2)cc1)c1ccccc1 | 2800 nM | 14 | 47 | 350 nM | 1210 nM | – | – | – | – | – | – | – | – | – |
| COc1ccc2c(Oc3ccc(OCCN4CCCCC4)cc3)c(-c3ccc(Br)cc3)sc2c1 | – | 37 | 74 | 630 nM | 1250 nM | – | – | – | – | – | – | – | – | – |
| Cc1c(-c2ccc(O)cc2)nn(-c2ccc(O)cc2)c1-c1ccc(OCCN2CCCCC2)cc1 | – | 12 | 11 | 1310 nM | 1190 nM | – | – | – | – | – | – | – | – | – |
| CC/C(=C(/c1ccc(NC(=O)CN2CCN(C)CC2)cc1)c1ccc(OCCN2CCCC2)cc1)c1ccccc1 | 360 nM | 7 | 1400 | 10 nM | 420 nM | – | – | – | – | – | – | – | – | – |
| CC/C(=C(/c1ccc(NC(=O)N2CCN(C)CC2)cc1)c1ccc(OCCN2CCCC2)cc1)c1ccccc1 | 1060 nM | 11 | 740 | 30 nM | 750 nM | – | – | – | – | – | – | – | – | – |
| COc1ccc2c(Oc3ccc(OCCN4CCCCC4)cc3)c(-c3ccc(Br)cc3)[s+]([O-])c2c1 (stereo not drawn) | – | > 55 | > 47 | 2140 nM | 1810 nM | – | – | – | – | – | – | – | – | – |
| CC/C(=C(/c1ccc(NC(=O)CC2CCN(C)CC2)cc1)c1ccc(OCCN2CCCC2)cc1)c1ccccc1 | 870 nM | 33 | 1400 | 6 nM | 620 nM | – | – | – | – | – | – | – | – | – |
| COc1ccc2c(Oc3ccc(OCCN4CCCCC4)cc3)c(-c3ccccc3)sc2c1 | > 6250 nM | 8 | 88 | 260 nM | 3180 nM | – | – | – | – | – | – | – | – | – |
| CCC(c1ccccc1)C(O)(c1ccc(OCCN(C)C)cc1)c1cccc(O)c1 (stereo not drawn) | – | 9 | 22 | 1740 nM | 4400 nM | – | – | – | – | – | – | – | – | – |
| CC/C(=C(/c1ccc(NC(=O)C2CCN(C)CC2)cc1)c1ccc(OCCN2CCCC2)cc1)c1ccccc1 | 640 nM | 12 | 590 | 10 nM | 540 nM | inactive | inactive | Active | Active | Active | Active | inactive | inactive | – |
| CC/C(=C(/c1ccc(NCCN2CCOCC2)cc1)c1ccc(OCCN2CCOCC2)cc1)c1ccccc1 | 2900 nM | < 2 | 111 | 230 nM | 2180 nM | – | – | – | – | – | – | – | – | – |
| COc1ccc2c(c1)CCC(c1ccccc1)=C2c1ccc(OCCN2CCCC2)cc1 [NAFOXIDINE] | > 6250 nM | 6 | 82 | 100 nM | 1300 nM | – | – | – | – | – | – | – | – | – |
| Oc1ccc2c(Oc3ccc(OCCN4CCCCC4)cc3)c(-c3ccccc3)sc2c1 | > 6250 nM | 20 | 45 | 300 nM | 670 nM | – | – | – | – | – | – | – | – | – |
| CCC(=C(c1ccc(OCCN2CCCC2)cc1)c1ccc(OCCN2CCCC2)cc1)c1ccccc1 | 1560 nM | 13 | 405 | 20 nM | 610 nM | – | – | – | – | – | – | inactive | – | 8100 nM |
| CC/C(=C(/c1ccc(NCCN2CCCC2)cc1)c1ccc(OCCN2CCCC2)cc1)c1ccccc1 | > 25000 nM | 18 | 79 | 330 nM | > 12500 nM | – | – | – | – | – | – | – | – | – |
| Oc1ccc2c(Oc3ccc(OCCN4CCCCC4)cc3)c(-c3ccc(F)cc3)sc2c1 | – | 7 | 15 | 980 nM | 2040 nM | – | – | – | – | – | – | – | – | – |
| Cc1cc(F)cc(C)c1C(=O)c1sc2cc(O)ccc2c1Oc1ccc(OCCN2CC(CF)C2)cc1 | – | 15 | 21 | 1320 nM | 1870 nM | – | – | – | – | – | – | – | – | – |
